Results reported in PMC6432638 (Science signaling, 2018).

Molecular target: SMARCA4 (Homo sapiens, UniProt P51532)
Assay: TR-FRET ligand displacement assay with recombinant bromodomain and BET ligand
Assay type: binding
Details: read-out: % inhibition at 10 μM

Chain of SMARCA4 (P51532 1453-1564 limits assumed): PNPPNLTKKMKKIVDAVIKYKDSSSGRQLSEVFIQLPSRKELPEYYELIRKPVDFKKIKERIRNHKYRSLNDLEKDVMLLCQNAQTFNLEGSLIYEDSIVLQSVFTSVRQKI

Question: Which inhibition at 10 µM does the source give for `O=C(/C=C/N1C[C@H]2C[C@@H]1CN2c1ccccn1)c1ccccc1O` [PFI-3] here?
Answer: The inhibition at 10 µM was 95%.
